Target: Dual specificity tyrosine-phosphorylation-regulated kinase 1A (Homo sapiens, UniProt Q13627)
Assay: Kinase Assay: The DYRK1A kinase assay was run using the Ser/Thr 18 peptide Z-lyte assay kit according to manufacturer's instructions (Life Technologies—a Division of Thermo-Fisher). This is a non-radioactive assay using fluorescence resonance energy transfer (FRET) between coumarin and fluorescein to detect kinase activity which is represented as a ratio of coumarin emission/fluorescein emission.Briefly, recombinant DYRK1A kinase, ATP and Ser/Thr peptide 18 were prepared in 1× Kinase buffer to final concentrations of 0.19 μg/mL, 30 μM, and 4 μM respectively. The mixture was allowed to incubate with the representative compounds for one hour at room temperature. All reactions were performed in duplicate. Unphosphorylated (“0% Control”) and phosphorylated (“100% control”) forms of Ser/Thr 18 served as control reactions. Additionally, an 11-point dose-response curve of Staurosporine (1 uM top) was run to serve as a positive compound control.

Compound | EC50
O=C1CCc2cccc(c2)-c2cncc3[nH]c(nc23)-c2n[nH]c3ccc(cc23)-c2cncc(c2)N1 | 10 nM
O=C1CCc2cccc(c2)-c2cncc(c2)NC(=O)c2n[nH]c3ccc(cc23)-c2cncc(c2)CN1 | 9 nM
c1cc2cc(c1)-c1cncc3[nH]c(nc13)-c1n[nH]c3ccc(cc13)-c1cncc(c1)CNC2 | 3 nM
O=C1COc2cccc(c2)-c2cncc3[nH]c(nc23)-c2n[nH]c3ccc(cc23)-c2cncc(c2)N1 | 5 nM
CN1CCCCN(C)c2nccc3[nH]c(nc23)-c2n[nH]c3ccc(cc23)-c2cncc(c2)C1 | 2 nM

From ChEMBL document CHEMBL5727930, “Indazole containing macrocycles and therapeutic uses thereof” (2020)
